# Measured values reported in patent publication US6953783B1, “Modulation of gene expression by combination therapy” (MethylGene, Inc., priority 1998, dated 2005).
# pIC50: −log10 of the molar value. d = 2'-deoxy (DNA); m = 2'-O-methyl
# How the values were obtained:
# thymidylate synthase = conditions: T24 cells; 25 or 50 nM, 72 hours
# Description: After treatment, the cells were lysed and analyzed by Western blotting analysis for thymidylate synthase protein levels using a thymidylase synthase specific antibody (commercially available from Chemicon Int., Temecula, Calif.).
# DNA MeTase protein [1] = test: DNA MeTase protein levels by Western blotting in T24 cells; assay type: cell-based, human; conditions: for reduction in DNA MeTase protein levels: 20, 40 or 80 nM with lipofectin, 4 h on day 0 and day 1, harvest day 2
# Excerpt: (§1) MG88 was next tested for an ability to inhibit DNA MeTase mRNA in two human neoplastic cells, A549 (human non-small cell lung carcinoma cells) and T24 (human bladder cancer cells). […] MG208 was modified as follows: A equals 2′-deoxyriboadenosine; C equals 2′-deoxyribocytidine; G equals 2′-deoxyriboguanosine; T equals 2′-deoxyribothymidine; A equals riboadenosine; U equals uridine; C equals ribocytidine; and G equals riboguanosine. The underlined bases were 2′-methoxyribose substituted nucleotides. Non-underlined bases indicate deoxyribose nucleosides. The backbone of MG208 consisted of a phosphorothioate linkage between adjoining nucleotides.
# The MG88 and MG208 oligonucleotides were diluted to the desired concentration from a 0.1 mM stock solution in the transfection media. Cells were exposed to oligonucleotide plus lipofectin (or lipofectin only) for four hours on day 0 and four hours on day 1 (after each four hour treatment, cells were returned to complete media). On day 2 (i.e., 48 hours after the first treatment on day 0), cells were harvested, whole cell lysates were prepared, and DNA MeTase protein levels were analyzed by Western blotting analysis with a DNA MeTase-specific rabbit polyclonal antibody (generated according to standard techniques of a glutathione S -transferase fusion protein containing the first 10 kDa amino terminus from DNA methyltransferase protein). […] Equal loading of all lanes was confirmed by blotting for α-actin protein levels with an actin-specific rabbit polyclonal antibody (commercially available from Santa Cruz Biotech., Santa Cruz, Calif.).
# (§2) Next, to determine whether de novo methylation and silencing of the re-expressed p16^ink4A gene occurred when DNA MeTase returned to normal levels, T24 cells were transfected for 10 consecutive days with either 40 or 75 nM or MG88 or MG208. […] Cell lysates of the T24 cells transfected for ten days were analyzed by Western blotting analysis for expression of DNA MeTase protein,p16^ink4A protein, and actin protein (as a control for equal loading) 3, 5, and 7 days after MG88 transfection.
# p21^WAF1 = p21^WAF1 protein levels by Western blotting in T24 cells; assay type: cell-based, human; conditions: for p21^WAF1 protein level: 40 nM or 75 nM, 24 or 48 hours
# Description: Another member of the cyclin-dependent kinase inhibitor (CDKI) family, p21^WAF1, inhibits a wide range of cyclin/CDK complexes involved in G1 and S phase progression (Tam et al. (1994) Cancer Res. 54: 5816-5820; Baghdassarian and French (1996) Hematol. Cell Ther. 88: 313-323; Gotz et al. (1996) Oncogene 13: 391-398). […] To do this, DNA MeTase, p21^WAF1, and α-actin protein levels were measured by Western blotting analysis in T24 cells that had been treated for either 24 hours (i.e., one 4 hour transfection time) or 48 hours (i.e., two […] transfections 24 hours apart) with either 40 nM or 75 nM of either MG88 or MG208.
# T24 cells were also treated for 24 hours (i.e., four hour transfection) with lipofectin only, or lipofectin plus 20, 40, or 80 nM of MG88 or MG208. After treatment, cell lysates were prepared and analyzed by Western blotting analysis with α-actin-specific antibody or p21-specific antibody.
# p16^ink4A protein = p16^ink4A protein by immunoprecipitation and Western blotting in T24 cells; assay type: cell-based, human; conditions: for induction of expression of p16^ink4A protein: 40 nM or 75 nM, 4 h each day up to 10 days
# Excerpt: The cyclin-dependent kinase inhibitor (CDKI) p16^ink4A regulates the transition from G1 to S-phases of the cell cycle (Serrano et al. (1993) Nature 366: 704-707). Inactivation of p16^ink4A is one of the most frequently observed abnormalities in human cancer (Serrano et al., supra). Transcriptional inactivation and associated hypermethylation of the p16^ink4A promote region have also been observed in virtually all types of cancer (Gonzales-Zulueta et al. (1995) Cancer Res. 55: 4531-4535; Merlo et al. (1995) Nat. Med. 7: 686-692; Costello et al. (1996) Cancer Res. 56: 2405-2410; Lo et al., Cancer Res. 56: 2721-2725). To investigate the effect of specifically reducing cellular DNA MeTase levels on the expression and methylation status of a silenced p16^ink4A gene, T24 human bladder cancer cells that contain a hypermethylated and silenced p16^ink4A gene were transfected with 40 nM or 75 nM MG88 or control oligonucleotide MG208 with 6.25 μg/ml lipofectin for four hours each day for up to 10 consecutive days. On days 3, 5, 8, and 10, p16^ink4A protein levels were then analyzed by immunoprecipitation followed by Western blotting analysis with a p16^ink4A protein-specific antibody (PharMingen). HeLa cells were used as a positive (+) control for p16^ink4A protein expression.
# as §2
# p16^ink4A promoter = test: Methylation specific PCR and bisulfite genomic sequencing of the p16^ink4A promoter in T24 cells; assay type: cell-based, human; conditions: for demethylation of the p16^ink4A promoter region (MSP): treated 3, 5, 9 or 10 days
# Description: To identify changes in the methylation status of the p16^ink4A promoter induced by MG88 treatment, methylation specific PCR (MSP) and bisulfite genomic sequencing was performed as previously described ([…] et al. (1994) Nat. Gen. 8: 27-32; Frommer et al. (1991) Proc. Nat. Acad. Sci. USA 89: […]). […] Briefly, the Oncor p16 detection system was used (commercially available from Oncor, Gaithersburg, Md.). PCR was performed in a total volume of 25 μl under the following conditions: 100 ng bisulfate-treated DNA (Oncor),10 mM Tris-HCl, pH 8.3, […], 1.5 mM MgCl2, 250 μM dNTPs, 80 ng of each of the following primers ([NT] sense (SEQ ID NO: 79) and [NT] antisense (SEQ ID NO: 80)) and 1 unit of AmpliTaq Gold (Perkin-Elmer). The denaturation cycle was 95° C. for 12 min followed by 35 cycles at 95° C. for 45 seconds, 60° C. for 45 seconds, and 72° C. for 60 seconds, and an elongation cycle of 72° C. for 10 minutes. the PCR product (5 μl) was analyzed on a 2% agarose gel. The unmethylated (U) and demethylated (D) primers (commercially available from Oncor) were used at the same conditions as the specific primers.
# T24 cells = test: T24 cell proliferation during and after treatment (cell counting); assay type: cell-based, human; conditions: for cell proliferation during treatment: days 0-5, relative to lipofectin
# Excerpt: To study the effect of specific inhibition of DNA MeTase on cell growth, cellular proliferation rates were monitored both during the treatment and post treatment periods to determine the duration of the effect. […] During and following treatment, cells were counted. […] To determine whether the transient re-expression of p16^ink4A and growth-inhibitory effects induced by short term treatment with MG88 were due to the expansion of a less affected (less demethylated) population of cells within the treated population, or to rapid inactivation of p16^ink4A after MG88 withdrawal, single cell clones were isolated after treatment. Several MG88 clones were, in fact, p16^ink4A negative, confirming that the MG88 treatment produced a mixed population of p16^ink4A positive and negative cells.
# DNA MeTase protein [2] = test: DNA MeTase protein levels by Western blotting in A549 cells; assay type: cell-based, human; conditions: 20, 40 or 80 nM with lipofectin, 4 h on day 0 and day 1, harvest day 2
# Excerpt: as §1
# The MG88 and MG208 oligonucleotides were diluted to the desired concentration from a 0.1 mM stock solution in the transfection media. Cells were exposed to oligonucleotide plus lipofectin (or lipofectin only) for four hours on day 0 and four hours on day 1 (after each four hour treatment, cells were returned to complete media). On day 2 (i.e., 48 hours after the first treatment on day 0), cells were harvested, whole cell lysates were prepared, and DNA MeTase protein levels were analyzed by Western blotting analysis with a DNA MeTase-specific rabbit polyclonal antibody (generated according to standard techniques of a glutathione S -transferase fusion protein containing the first 10 kDa amino terminus from DNA methyltransferase protein). […]
# human DNA MeTase mRNA = test: Antisense inhibition of DNA MeTase mRNA (screen of phosphorothioate oligonucleotides); assay type: cell-based
# Excerpt: As shown in FIG. 1 the two […] regions were identified to be highly sensitive to antisense inhibition were targeted by MG88 having the sequence [NT] ID NO:1) (this oligonucleotide is targeted to the […] 5'UTR at nucleotides 532 to 513) and MG98 having the sequence [NT] ID NO:2) (this oligonucleotide is targeted to the […] 3'UTR at nucleotides 5218 to 5199). These oligonucleotides were chemically modified as follows: A equals 2'-deoxyriboadenosine; C equals 2'-deoxyribocytidine; G equals 2'-deoxyriboguanosine; T equals 2'-deoxyribothymidine; A equals riboadenosine; U equals uridine; C equals ribocytidine; and G equals riboguanosine. The underlined bases were 2'-methoxyribose substituted nucleotides. Non-underlined bases indicate deoxyribose nucleosides. The backbone of each oligonucleotide consisted of a phosphorothioate linkage between adjoining nucleotides.
# pRb = test: Western blotting for phosphorylated pRb in T24 cells; assay type: cell-based, human; conditions: T24 cells reactivated to express p16^ink4A after transfection
# p21^WAF1 mRNA = test: RNase protection assay for p21 mRNA in T24 cells; assay type: cell-based, human; conditions: 40 nM, 24 or 48 hours
# Description: Next, to determine if p21^WAF1 was induced at the transcriptional level, RNase protection assay were performed on cells treated with 40 nM of either MG88 or MG208 for either 24 or 48 hours. Total cellular RNA was isolated from the cells and analysed for p21 mRNA, p27 mRNA, and p18 mRNA using the human cell cycle-2 (hcc-2) multiprobe RNase protection kit commercially available from PharMingen, San Diego, Calif.). RNA loading was determined to be equal using the signals from two housekeeping genes, L32 and GAPDH.
# p16 tumor suppressor = test: Reactivation of p16 expression in T24 cells, oligonucleotide and/or 5-aza-dC (IP/Western, densitometry); assay type: cell-based, human; conditions: densitometry of FIG. 14 Western, 40 nM oligonucleotide and/or 0.1 μM 5-aza-dC
# Description: For this purpose, one day before transfection, T24 cells (ATCC No. HTB-4) were plated onto 10 cm plates at 4×10^5 cells/dish. At the time of transfection, cells were washed with phosphate buffered saline (PBS) and 5 ml of optimem media (Gibco-BRL) containing 6.25 μl/ml lipofectin transfection reagent (Gibco-BRL) was added. […] These oligonucleotides were chemically modified as follows: A equals 2'-deoxyriboadenosine; C equals 2'-deoxyribocytidine; G equals 2'-deoxyriboguanosine; T equals 2'-deoxyribothymidine; Aequals riboadenosine; U equals uridine; C equals ribocytidine; and G equals riboguanosine. The underlined bases were 2'-methoxyribose substituted nucleotides. Non-underlined bases indicate deoxyribose nucleosides. The backbone of each oligonucleotide consisted of a phosphorothioate linkage between adjoining nucleotides. The oligonucleotides were diluted to the desired concentration from a 0.1 mM stock solution in the transfection media. After a four-hour incubation at 37° C. in a 5% CO2 incubator, the plates were washed with PBS and 10 ml of fresh cell culture media was added. Following an additional two-hour incubation at 37° C., freshly prepared 5-aza-2'-deoxycytidine was added to the tissue culture medium. Cells were transfected for a total of three days and split every other day to ensure optimal transfection conditions. At the indicated time points, cells were harvested by trypsinization and pelleted by centrifugation at 1100 rpm and 4° C. for five minutes. The cell pellet was resuspended in PBS and counted on a Coulter Particle Counter to determine the total cell number. Following a second centrifugation, the PBS was aspirated from the cell pellet and the pellet was frozen at 70° C. […] The lysed cells were incubated on ice for 10 minutes and cell particulate matter was removed by centrifugation at 10,000 rpm for 10 minutes at 4° C. The protein concentration for each sample was determined using the Bio Rad Protein Assay and 600 μg of protein was used for each immunoprecipitation. […]
# [3] = test system: Colo 205 human colon cancer cells; test: Colo 205 tumor growth in nude mice; assay type: in vivo, BALB/c nude mice; conditions: i.v. daily for seven days; 0.5 mg/kg MG98 and/or 0.1 mg/kg 5-aza-dC
# Description: Eight to ten week old female BALB/c nude mice (Taconic Labs, Great Barrington, N.Y.) were injected subcutaneously in the flank area with 2×10^6 preconditioned Colo 205 human colon cancer cells (ATCC No. CCL-222). Preconditioning of these cells was done by a minimum of three consecutive tumor transplantations in the same strain of nude mice. Subsequently, tumor fragments of approximately 30 mgs were excised and implanted subcutaneously in mice, in the left flank area under Forene anesthesia (Abbott Labs., Geneva, Switzerland). […] Tumor volume was calculated according to standard methods every second day post infusion (see methods, e.g., in Meyer et al. (1989) Int. J. Cancer 43: 851-856).
# [4] = mammals; cited from earlier work
# [5] = after 10 day treatment with 40 nM
compound,measurement,setting,value
"5′ GUCUTAAGCTCAACATUCUA 3′ [MG2606, reference compound]",thymidylate synthase protein level compared to lipofectin only,thymidylate synthase,not
5′ UUCATAACCTCAGCATUGUC 3′ [MG2605],thymidylate synthase protein level compared to lipofectin only,thymidylate synthase,diminished levels of thymidylate synthase protein
"5′-AACGAT CAG GAC CCT TGUCC-3′ (DNA AACGATCAGGACCCTTGUCC; sugars from the 5' end m4 d12 m4, all phosphorothioate, methylation of C not given here) [MG208, mismatch control oligonucleotide, reference compound]",reduction in DNA MeTase protein levels,DNA MeTase protein [1],not
same,p21^WAF1 protein level,p21^WAF1,neither lipofectin nor MG208 had an effect
same,induction of expression of p16^ink4A protein,p16^ink4A protein,not detected
same,p16^ink4A methylation status (bisulfite sequencing),"p16^ink4A promoter; T24 cells, days 3 and 5 of treatment",no effect on p16^ink4A methylation status
same,demethylation of the p16^ink4A promoter region (MSP),p16^ink4A promoter; T24 cells,no effect on methylation of the p16^ink4A gene
same,cell proliferation during treatment,T24 cells; 75 nM,only minimal growth inhibition
same,reduction in DNA MeTase protein levels,DNA MeTase protein [2],not
5′-AAGCAT GAG CAC CGT TCUCC-3′ [MG88],reduction in DNA MeTase protein levels,DNA MeTase protein [1],dose-dependent reduction in DNA MeTase protein levels
same,return of DNA MeTase protein to control levels post-treatment,DNA MeTase protein [1]; [5],5 to 7 days
same,p21^WAF1 protein level,p21^WAF1,increased directly with the reduction in DNA MeTase
same,"p21^WAF1 protein induction, dose response","p21^WAF1; 20, 40 or 80 nM, 24 hours",induced p21^WAF1 in a dose dependent fashion
same,pIC50,human DNA MeTase mRNA,7.40
same,phosphorylated forms of pRb,pRb,decrease in the amount of phosphorylated forms of pRb
same,induction of expression of p16^ink4A protein,p16^ink4A protein,detected after 5 days of treatment
same,p16^ink4A protein level post-treatment,p16^ink4A protein; [5],barely detectable at day 7 post-treatment
same,demethylated CpG sites of p16^ink4A promoter (bisulfite sequencing),"p16^ink4A promoter; T24 cells, day 5 of treatment, 15 sites in all",15 CpG sites
same,re-methylated sites of p16^ink4A promoter,"p16^ink4A promoter; T24 cells, three days after cessation of treatment",13 of 15
same,demethylation of the p16^ink4A promoter region (MSP),p16^ink4A promoter; T24 cells,occurred as early as day 3 of MG88 treatment
same,methylation of p16^ink4A promoter in positive clone C4-5,p16^ink4A promoter; thirty days after a five day treatment (75 nM),completely non methylated at all CpG sites evaluated
same,p21^WAF1 mRNA,p21^WAF1 mRNA,no increase in p21^WAF1 mRNA
same,antiproliferative and cell death effect,"T24 cells; 75 nM, 10 consecutive days",significant antiproliferative and cell death inducing effect
same,cell proliferation during treatment,T24 cells; 75 nM,dramatically inhibited cell proliferation
same,persistence of inhibition of cell proliferation,T24 cells; after 5 day treatment with 75 nM,approximately one week post-treatment
same,reduction in DNA MeTase protein levels,DNA MeTase protein [2],dose-dependent reduction in DNA MeTase protein levels
"5′-UUAATG TAA CCT AAG GUCAA-3′ (DNA UUAATGTAACCTAAGGUCAA; sugars from the 5' end m4 d12 m4, all phosphorothioate, methylation of C not given here) [MG207, negative control oligonucleotide]","p16 expression, Percentage of HeLa Cell Control",p16 tumor suppressor,1
5′-UUCATG TCA GCC AAG GCC AC-3′ [MG98],"p16 expression, Percentage of HeLa Cell Control",p16 tumor suppressor,4
same,pIC50,human DNA MeTase mRNA,7.35
same,tumor volume,[3],showed tumor volume increase
"Nc1ncn([C@H]2C[C@H](O)[C@@H](CO)O2)c(=O)n1 [5-aza-dC, 5-aza-2′-deoxycytidine]","p16 expression, Percentage of HeLa Cell Control",p16 tumor suppressor,11
same,toxicity of threshold concentrations necessary to inhibit DNA methyltransferase activity,[4],toxic to mammals
same,tumor volume,[3],showed less tumor volume increase
"Nc1ncn([C@@H]2O[C@H](CO)[C@@H](O)[C@H]2O)c(=O)n1 [5-azaC, 5-aza-cytidine]",toxicity of threshold concentrations necessary to inhibit DNA methyltransferase activity,[4],toxic to mammals
